Assay results: patent US10681909B2, “Herbicidal triazoles” (FMC Corporation, priority 2014, dated 2020)

Columns and labels:
barnyardgrass [1] = experiment: Test A preemergence; assay type: in vivo, Echinochloa crus-galli; details: 0 to 100 scale (0 no effect, 100 complete control)
Outline: (§1)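 Test chemicals in a non-phytotoxic solvent with surfactant were applied as a directed soil spray preemergence to seeds sown in loam/sand. Postemergence sprays went to plants 2–10 cm tall at the one- to two-leaf stage. A dash means no result.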

foxtail, giant = experiment: Test A preemergence; assay type: in vivo, Setaria faberii; details: 0 to 100 scale (0 no effect, 100 complete control)
Outline: as §1

pigweed = experiment: Test A preemergence; assay type: in vivo, Amaranthus retroflexus; details: 0 to 100 scale (0 no effect, 100 complete control)
Outline: as §1

wheat = experiment: Test A postemergence; assay type: in vivo, Triticum aestivum; details: 0 to 100 scale (0 no effect, 100 complete control), approx. 10 d
Outline: as §1

blackgrass = experiment: Test C postemergence; assay type: in vivo, Alopecurus myosuroides
Outline: (§2)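 Seeds were planted in loam soil plus sand and sprayed preemergence. In parallel, potted plants in a peat-based medium were sprayed postemergence at 2 to 18 cm (1- to 4-leaf stage). Compounds were formulated in non-phytotoxic solvent with surfactant.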

crabgrass, large = experiment: Test C postemergence; assay type: in vivo, Digitaria sanguinalis
Outline: as §2

morningglory = experiment: Test C postemergence; assay type: in vivo, Ipomoea coccinea
Outline: as §2

soybean = experiment: Test C postemergence; assay type: in vivo, Glycine max
Outline: as §2

barnyardgrass [2] = experiment: Test C postemergence; assay type: in vivo, Echinochloa crus-galli
Outline: as §2

waterhemp = experiment: Test C postemergence; assay type: in vivo, Amaranthus rudis
Outline: as §2

velvetleaf = experiment: Test C postemergence; assay type: in vivo, Abutilon theophrasti
Outline: as §2

kochia = experiment: Test C postemergence; assay type: in vivo, Kochia scoparia
Outline: as §2

chamomile = experiment: Test D postemergence; assay type: in vivo, Matricaria inodora; details: scale 0 to 100
Source text: Seeds of plant species selected from bluegrass (annual bluegrass, Poa annua), blackgrass (Alopecurus myosuroides), canarygrass (Phalaris minor), chickweed (common chickweed, Stellaria media), galium (catchweed bedstraw, Galium aparine), bromegrass, down (downy bromegrass, Bromus tectorum), Russian thistle (Salsola kali), field poppy (Papaver rhoeas), field violet (Viola arvensis), foxtail, green (green foxtail, Setaria viridis), deadnettle (henbit deadnettle, Lamium amplexicaule), ryegrass, Ital. (Italian ryegrass, Lolium multiflorum), kochia (Kochia scoparia), lambsquarters (Chenopodium album), oilseed rape (Brassica napus), pigweed (Amaranthus retroflexus), chamomile (scentless chamomile, Matricaria inodora), speedwell (bird's-eye speedwell, Veronica persica), barley, spring (spring barley, Hordeum vulgare), wheat, spring (spring wheat, Triticum aestivum), buckwheat, wild (wild buckwheat, Polygonum convolvulus), wild mustard (Sinapis arvensis), oat, wild (wild oat, Avena fatua), radish, wild (wild radish, Raphanus raphanistrum), […]), barley, winter (winter barley, Hordeum vulgare), and wheat, winter (winter wheat, Triticum aestivum) were planted into a silt loam soil and treated preemergence with test chemicals formulated in a non-phytotoxic solvent mixture which included a surfactant. At the same time, these species were planted in pots containing Sunshine Redi-Earth® planting medium comprising spaghnum peat moss, vermiculite, starter nutrients and dolomitic limestone and treated with postemergence applications of the test chemicals formulated in the same manner. Plants ranged in height from 2 to 18 cm (1- to 4-leaf stage). Treated plants and controls were maintained in a controlled growth environment for 14 to 21 d after which time all species were compared to controls and visually evaluated. […] A dash (-) response means no test result.

**Q.** With `CCOc1nc(-c2ccccc2)nn1Cc1ccnc(C(F)(F)F)c1` [Compound 27] as the compound, how does the “Plant response rating, Barnyardgrass” value (barnyardgrass [1]; 125 g ai/ha) read?
**A.** 100

**Q.** And the “Plant response rating, Barnyardgrass” value (barnyardgrass [1]; 500 g ai/ha, approx. 10 d)?
**A.** 100

**Q.** What about the “Plant response rating, Foxtail, Giant” value (foxtail, giant; 125 g ai/ha) of the same compound?
**A.** 100

**Q.** And the “Plant response rating, Foxtail, Giant” value (foxtail, giant; 500 g ai/ha, approx. 10 d)?
**A.** 100

**Q.** And the “Plant response rating, Pigweed” value (pigweed; 125 g ai/ha)?
**A.** 100

**Q.** What about the “Plant response rating, Pigweed” value (pigweed; 500 g ai/ha, approx. 10 d) of the same compound?
**A.** 100

**Q.** What about the “Plant response rating, Wheat” value (wheat; 125 g ai/ha) of the same compound?
**A.** 20

**Q.** What about the “Plant response rating, Wheat” value (wheat; 500 g ai/ha) of the same compound?
**A.** 70

**Q.** And the “Plant response rating (scale of 0 to 100 where 0 is no effect and 100 is complete control)” value (blackgrass; 31 g ai/ha)?
**A.** 10

**Q.** And the “Plant response rating (scale of 0 to 100 where 0 is no effect and 100 is complete control)” value (blackgrass; 62 g ai/ha)?
**A.** 15

**Q.** What about the “Plant response rating (scale of 0 to 100 where 0 is no effect and 100 is complete control)” value (blackgrass; 125 g ai/ha) of the same compound?
**A.** 35

**Q.** And the “Plant response rating (scale of 0 to 100 where 0 is no effect and 100 is complete control)” value (blackgrass; 250 g ai/ha)?
**A.** 50

**Q.** What about the “Plant response rating (scale of 0 to 100 where 0 is no effect and 100 is complete control)” value (crabgrass, large; 31 g ai/ha) of the same compound?
**A.** 10

**Q.** What about the “Plant response rating (scale of 0 to 100 where 0 is no effect and 100 is complete control)” value (crabgrass, large; 62 g ai/ha) of the same compound?
**A.** 20

**Q.** And the “Plant response rating (scale of 0 to 100 where 0 is no effect and 100 is complete control)” value (crabgrass, large; 125 g ai/ha)?
**A.** 15

**Q.** And the “Plant response rating (scale of 0 to 100 where 0 is no effect and 100 is complete control)” value (crabgrass, large; 250 g ai/ha)?
**A.** 45

**Q.** What about the “Plant response rating (scale of 0 to 100 where 0 is no effect and 100 is complete control)” value (morningglory; 31 g ai/ha) of the same compound?
**A.** 85

**Q.** What about the “Plant response rating (scale of 0 to 100 where 0 is no effect and 100 is complete control)” value (morningglory; 62 g ai/ha) of the same compound?
**A.** 80

**Q.** And the “Plant response rating (scale of 0 to 100 where 0 is no effect and 100 is complete control)” value (morningglory; 125 g ai/ha)?
**A.** 90

**Q.** And the “Plant response rating (scale of 0 to 100 where 0 is no effect and 100 is complete control)” value (morningglory; 250 g ai/ha)?
**A.** 85

**Q.** And the “Plant response rating (scale of 0 to 100 where 0 is no effect and 100 is complete control)” value (soybean; 31 g ai/ha)?
**A.** 70

**Q.** And the “Plant response rating (scale of 0 to 100 where 0 is no effect and 100 is complete control)” value (soybean; 62 g ai/ha)?
**A.** 95

**Q.** What about the “Plant response rating (scale of 0 to 100 where 0 is no effect and 100 is complete control)” value (soybean; 125 g ai/ha) of the same compound?
**A.** 65

**Q.** What about the “Plant response rating (scale of 0 to 100 where 0 is no effect and 100 is complete control)” value (soybean; 250 g ai/ha) of the same compound?
**A.** 70

**Q.** And the “Plant response rating (scale of 0 to 100 where 0 is no effect and 100 is complete control)” value (barnyardgrass [2]; 31 g ai/ha)?
**A.** 10

**Q.** What about the “Plant response rating (scale of 0 to 100 where 0 is no effect and 100 is complete control)” value (barnyardgrass [2]; 62 g ai/ha) of the same compound?
**A.** 15

**Q.** What about the “Plant response rating (scale of 0 to 100 where 0 is no effect and 100 is complete control)” value (barnyardgrass [2]; 125 g ai/ha) of the same compound?
**A.** 25

**Q.** What about the “Plant response rating (scale of 0 to 100 where 0 is no effect and 100 is complete control)” value (barnyardgrass [2]; 250 g ai/ha) of the same compound?
**A.** 55

**Q.** And the “Plant response rating (scale of 0 to 100 where 0 is no effect and 100 is complete control)” value (waterhemp; 31 g ai/ha)?
**A.** 90

**Q.** What about the “Plant response rating (scale of 0 to 100 where 0 is no effect and 100 is complete control)” value (waterhemp; 62 g ai/ha) of the same compound?
**A.** 95

**Q.** And the “Plant response rating (scale of 0 to 100 where 0 is no effect and 100 is complete control)” value (waterhemp; 125 g ai/ha)?
**A.** 95

**Q.** And the “Plant response rating (scale of 0 to 100 where 0 is no effect and 100 is complete control)” value (waterhemp; 250 g ai/ha)?
**A.** 98

**Q.** And the “Plant response rating (scale of 0 to 100 where 0 is no effect and 100 is complete control)” value (velvetleaf; 31 g ai/ha)?
**A.** 45

**Q.** What about the “Plant response rating (scale of 0 to 100 where 0 is no effect and 100 is complete control)” value (velvetleaf; 62 g ai/ha) of the same compound?
**A.** 50

**Q.** And the “Plant response rating (scale of 0 to 100 where 0 is no effect and 100 is complete control)” value (velvetleaf; 125 g ai/ha)?
**A.** 60

**Q.** What about the “Plant response rating (scale of 0 to 100 where 0 is no effect and 100 is complete control)” value (velvetleaf; 250 g ai/ha) of the same compound?
**A.** 70

**Q.** What about the “Plant response rating (scale of 0 to 100 where 0 is no effect and 100 is complete control)” value (kochia; 31 g ai/ha) of the same compound?
**A.** 95

**Q.** What about the “Plant response rating (scale of 0 to 100 where 0 is no effect and 100 is complete control)” value (kochia; 62 g ai/ha) of the same compound?
**A.** 95

**Q.** What about the “Plant response rating (scale of 0 to 100 where 0 is no effect and 100 is complete control)” value (kochia; 125 g ai/ha) of the same compound?
**A.** 95

**Q.** What about the “Plant response rating (scale of 0 to 100 where 0 is no effect and 100 is complete control)” value (kochia; 250 g ai/ha) of the same compound?
**A.** 95

**Q.** What about the “Plant response rating: Chamomile” value (chamomile; 16 g ai/ha) of the same compound?
**A.** 15

**Q.** And the “Plant response rating: Chamomile” value (chamomile; 31 g ai/ha)?
**A.** 15

**Q.** What about the “Plant response rating: Chamomile” value (chamomile; 62 g ai/ha) of the same compound?
**A.** 20

**Q.** And the “Plant response rating: Chamomile” value (chamomile; 125 g ai/ha)?
**A.** 35
